# From PubChem BioAssay (NCI)
#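 Assay format: 96-well plates, 48-hour exposure. At the GI50, growth is halved. Definition used: TGI = concentration required for complete inhibition of growth.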
# How the values were obtained:
# Experiment in all cases: NCI tumour cell line growth inhibition, 48 h
# K-562 leukemia = tested on: K-562 leukemia
# CAKI-1 renal = tested on: CAKI-1 renal
# OVCAR-5 ovarian = tested on: OVCAR-5 ovarian
# OVCAR-3 ovarian = tested on: OVCAR-3 ovarian
# OVCAR-4 ovarian = tested on: OVCAR-4 ovarian
# SN12C renal = tested on: SN12C renal
# SK-MEL-5 melanoma = tested on: SK-MEL-5 melanoma
# HCT-116 colon = tested on: HCT-116 colon
# SK-OV-3 ovarian = tested on: SK-OV-3 ovarian
# A549 NSCLC = tested on: A549 NSCLC
Compound,GI50 (K-562 leukemia) [µM],TGI (K-562 leukemia) [µM],GI50 (CAKI-1 renal) [µM],TGI (CAKI-1 renal) [µM],GI50 (OVCAR-5 ovarian) [µM],TGI (OVCAR-5 ovarian) [µM],GI50 (OVCAR-3 ovarian) [µM],TGI (OVCAR-3 ovarian) [µM],GI50 (OVCAR-4 ovarian) [µM],TGI (OVCAR-4 ovarian) [µM],GI50 (SN12C renal) [µM],TGI (SN12C renal) [µM],GI50 (SK-MEL-5 melanoma) [µM],TGI (SK-MEL-5 melanoma) [µM],GI50 (HCT-116 colon) [µM],TGI (HCT-116 colon) [µM],GI50 (SK-OV-3 ovarian) [µM],TGI (SK-OV-3 ovarian) [µM],GI50 (A549 NSCLC) [µM],TGI (A549 NSCLC) [µM]
CN(C)C(=O)O[C@@H]1CN[C@@H](C#Cc2cc3ncnc(Nc4ccc(OCc5cccc(F)c5)c(Cl)c4)c3s2)C1,> 25,> 25,5.87,> 25,> 25,> 25,7.51,> 25,> 25,> 25,8.01,> 25,> 25,> 25,> 25,> 25,0.406,> 25,7.82,> 25
NC(=O)c1ccc(C2C3=C(CCCC3=O)OC3=C2C(=O)c2ccccc2C3=O)cc1 (stereo not given),0.391,1.96,1.9,3.67,1.91,3.92,0.276,0.852,0.228,0.95,0.32,1.17,0.493,1.73,0.26,0.76,2.12,4.11,2.28,4.66
c1nnc(NCNc2nncs2)s1,,> 100,,> 100,,> 100,,> 100,,> 100,,> 100,,> 100,,> 100,,> 100,,> 100
Cc1cc(N/N=C/c2nc(-c3ccc(Cl)cc3)oc2C)c2cc(Cl)ccc2n1,0.571,2.56,2,4.33,8.08,20.6,1.87,3.45,1.68,3.33,1.94,4.16,8.64,20.8,2.14,4.59,3.54,12.8,1.76,3.6
O=C1CCCN1CC#CCN1CCCC1,> 100,> 100,> 100,> 100,> 100,> 100,> 100,> 100,> 100,> 100,> 100,> 100,> 100,> 100,> 100,> 100,> 100,> 100,> 100,> 100
Cn1c(=O)c2c(ncn2CN2CCN(Cn3cnc4c3c(=O)n(C)c(=O)n4C)CC2)n(C)c1=O,,> 100,,> 100,,> 100,,> 100,,> 100,,> 100,,> 100,,34.6,,> 100,,> 100
CCOc1ccccc1NC(=O)CCc1nc(=S)[nH][nH]1,,> 100,,> 100,,> 100,,> 100,,> 100,,> 100,,> 100,,> 100,,> 100,,> 100
O=C(O)CSc1ncccc1[N+](=O)[O-],,> 100,,> 100,,> 100,,> 100,,> 100,,> 100,,> 100,,> 100,,> 100,,> 100
COc1ccc(CN2c3ccccc3CCc3ccccc32)cc1F,0.402,> 100,0.549,> 100,1.9,> 100,0.285,0.785,0.868,> 100,1.95,> 100,0.522,14.2,0.413,> 100,0.471,> 100,0.732,> 100
COC(=O)c1c(-c2ccccc2)sc(-c2cccc3ccccc23)c1C(=O)OC,,> 100,,> 100,,> 100,,> 100,,> 100,,> 100,,> 100,,> 100,,> 100,,> 100
CCN(CC)c1ccc2c(c1)Nc1cc(=C(C#N)C#N)c3ccccc3c1=N2,,> 100,,> 100,,> 100,,> 100,,> 100,,> 100,,> 100,,> 100,,> 100,,> 100
Fc1cccc(Cl)c1/C=N\N=C1c2ccccc2-c2ccccc21,,> 100,,> 100,,> 100,,> 100,,> 100,,> 100,,> 100,,> 100,,> 100,,> 100
O=C1c2ccccc2-n2c1nc1ccccc1c2=O,,> 44.6,,42.3,,29.9,,30.2,,53.7,,> 68.8,,26,,79.6,,> 100,,17
C/C(=N\NC(N)=S)c1nc2ccc(Cl)cc2[nH]1,2.37,> 50,0.287,1.74,5.71,18.1,2.85,14.1,1.31,19.9,4.72,> 50,2.7,22.4,2.11,8.85,2.31,9.19,2.3,9.95
Cc1nc(C(N)=S)sc1C(=O)C/C(=N/N)C(=O)Nc1cccc(Cl)c1C,,> 100,,> 100,,> 100,,> 100,,> 100,,> 100,,> 100,,> 100,,> 100,,> 100
CC1CCN(CC(=O)N2c3ccccc3Sc3cc4ccccc4cc32)CC1,,> 100,,> 100,,> 100,,> 100,,> 100,,> 100,,> 100,,> 100,,> 100,,> 100
CCOC(=O)CC1NC(=O)CS1 (stereo not given),,> 100,,> 100,,> 100,,> 100,,> 100,,> 100,,> 100,,61.7,,> 100,,> 100
CCN(CCNc1ccc(C)c2sc3ccccc3c(=O)c12)CC(C)(C)O,2.94,> 22.2,5.35,22.4,16.8,36.5,13.1,27.4,21.2,> 92.1,13.2,28.3,2.31,6.17,6.62,22.6,11.1,27,6.84,25.5
Cc1c2cc[n+](C)cc2c(C)c2c1[nH]c1ccc(O)c(OCC(F)(F)F)c12,,17,,29,,30.5,,7.4,,12.8,,4.11,,11.6,,12.1,,17.2,,12.4
O=[N+]([O-])c1nccn1COCCBr,,> 100,,> 100,,> 100,,> 100,,> 100,,> 100,,> 100,,> 100,,> 100,,> 100
COc1cc(S(C)(=O)=O)ccc1Nc1nc2ccc(-c3ccc(NC(=O)[C@H](C)c4ccc(F)cc4)cc3)cn2n1,> 78.7,> 100,> 100,> 100,> 100,> 100,> 100,> 100,> 100,> 100,> 100,> 100,0.4,> 100,0.0828,> 100,> 100,> 100,98.5,> 100
